Our source for the IC50 values is US12195482B1 (Arcus Biosciences, Inc., priority 2022, dated 2025).

The structures appear in SMILES notation.

For this assay, the target named is T1, Axl (Homo sapiens, UniProt P30530).
T1 sequence (P30530 26-894): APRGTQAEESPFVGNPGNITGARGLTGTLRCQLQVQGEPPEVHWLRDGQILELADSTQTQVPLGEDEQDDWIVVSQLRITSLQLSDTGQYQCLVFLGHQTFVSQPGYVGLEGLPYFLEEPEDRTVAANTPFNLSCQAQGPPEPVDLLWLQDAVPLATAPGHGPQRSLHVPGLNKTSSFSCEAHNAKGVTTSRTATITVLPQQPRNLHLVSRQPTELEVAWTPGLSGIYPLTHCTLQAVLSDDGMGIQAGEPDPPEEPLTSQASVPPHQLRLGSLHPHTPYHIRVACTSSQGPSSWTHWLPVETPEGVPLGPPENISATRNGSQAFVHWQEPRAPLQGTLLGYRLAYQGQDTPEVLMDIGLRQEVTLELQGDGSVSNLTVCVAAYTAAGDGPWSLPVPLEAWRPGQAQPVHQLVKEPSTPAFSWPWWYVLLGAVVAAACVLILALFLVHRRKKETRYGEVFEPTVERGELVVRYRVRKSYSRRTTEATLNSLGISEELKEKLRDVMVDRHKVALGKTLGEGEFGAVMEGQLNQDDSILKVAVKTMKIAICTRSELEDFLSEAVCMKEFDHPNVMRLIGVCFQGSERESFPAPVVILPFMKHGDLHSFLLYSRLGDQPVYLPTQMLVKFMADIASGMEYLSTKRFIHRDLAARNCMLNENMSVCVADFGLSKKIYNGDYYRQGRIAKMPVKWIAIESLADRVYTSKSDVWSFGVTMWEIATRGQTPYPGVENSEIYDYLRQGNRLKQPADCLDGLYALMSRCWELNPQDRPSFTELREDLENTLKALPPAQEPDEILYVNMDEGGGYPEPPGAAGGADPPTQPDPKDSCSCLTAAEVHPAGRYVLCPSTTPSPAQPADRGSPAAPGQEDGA
As to the kind of experiment: Axl NanoBRET intracellular kinase assay (intracellular binding, K-5 tracer displacement). Details: host or cells: HEK-293. Conditions: HEK-293 cells transfected with Axl-NanoLuc, 0.35 μM K-5 NanoBRET tracer; read-out: Cell Binding AXL. The protocol: Measuring Intracellular Binding of Axl Inhibitors
Axl NanoBRET™ intracellular kinase assay (Promega, N2540) was performed according to manufacturer's recommendation. In brief, HEK-293 cells are transiently transfected with Ax1-NanoLuc fusion vector (Promega, NV1071), utilizing Fugene HD transfection reagent (Promega, E2311) a day before experiment following manufacturer's recommendation.
The day of the assay, the cells were collected and resuspended in Opti-MEM media (ThermoFisher, 31985070) at 2e5 cells/mL concentration. Testing compounds were serial diluted and dispensed into a white 384 well polystyrene plate at 200 nL in 100% DMSO. 40 μL of resuspended cells is then added per well for a final condition of 8K cells/well with 0.5% DMSO. After one-hour compound pre-incubation at 37° C. and 5% CO2, cells were further incubated with 0.35 μM K-5 NanoBRET tracer for two-hours at 37° C. and 5% CO2. […] of 3× substrate plus Inhibitor solution was prepared according to kits manual and added to the cells followed by a 30 second pulse centrifugation spin. The plate was then immediately read utilizing an Envision (Perkin Elmer) plate reader. The BRET signal is measured by taking the ratio of the emissions reading at 610 nm and 450 nm. Compound binding is based on the decrease BRET signal caused by the displacement of the K-5 tracer. […] ICso value of compounds was determined by 4-parameter non-linear regression fitting of percent activity in GraphPad Prism software.
In the case of `Cc1cncnc1-c1ccc(-c2n[nH]c3ncc(-c4ccc5c(c4)CC[C@@H](N4C6COCC4C6)CC5)cc23)cc1` [Example 174, 6-[(7S)-2-{3-[4-(5-Methylpyrimidin-4-yl)phenyl]-1H-pyrazolo[3,4-b]pyridin-5-yl}-6,7,8,9-tetrahydro-5H-benzo[7]annulen-7-yl]-3-oxa-6-azabicyclo[3.1.1]heptane], the IC50 was < 100 nM.

Consider `CC(C)(O)c1cccnc1-c1ccc(-c2c[nH]c3ncc(-c4ccc5c(c4)CC[C@@H](N4C6COCC4C6)CC5)cc23)cc1` [Example 95, 2-[2-(4-{5-[(7S)-7-{3-Oxa-6-azabicyclo[3.1.1]heptan-6-yl}-6,7,8,9-tetrahydro-5H-benzo[7]annulen-2-yl]-1H-pyrrolo[2,3-b]pyridin-3-yl}phenyl)pyridin-3-yl]propan-2-ol], for which the IC50 was < 100 nM.

Take `CN(C)C(=O)c1ccccc1-c1ccc(-c2c[nH]c3ncc(-c4ccc5c(c4)CC[C@@H](N4C6COCC4C6)CC5)cc23)cn1` [Example 170, N,N-Dimethyl-2-(5-{5-[(7S)-7-{3-oxa-6-azabicyclo[3.1.1]heptan-6-yl}-6,7,8,9-tetrahydro-5H-benzo[7]annulen-2-yl]-1H-pyrrolo[2,3-b]pyridin-3-yl}pyridin-2-yl)benzamide]: the IC50 is < 100 nM.

For `CN(C)C(=O)c1cccnc1-c1ccc(-c2n[nH]c3ncc(-c4ccc5c(c4)CC[C@@H](N4C6COCC4C6)CC5)cc23)cc1` [Example 167, N,N-Dimethyl-2-(4-{5-[(7S)-7-{3-oxa-6-azabicyclo[3.1.1]heptan-6-yl}-6,7,8,9-tetrahydro-5H-benzo[7]annulen-2-yl]-1H-pyrazolo[3,4-b]pyridin-3-yl}phenyl)pyridine-3-carboxamide], the IC50 was < 100 nM.

As for `Cc1nccnc1-c1ccc(-c2n[nH]c3ncc(-c4ccc5c(c4)CC[C@@H](N4C6COCC4C6)CC5)cc23)cc1` [Example 175, 6-[(7S)-2-{3-[4-(3-Methylpyrazin-2-yl)phenyl]-1H-pyrazolo[3,4-b]pyridin-5-yl}-6,7,8,9-tetrahydro-5H-benzo[7]annulen-7-yl]-3-oxa-6-azabicyclo[3.1.1]heptane], the IC50 was < 100 nM.

In the case of `C[C@@H]1CCCN1[C@@]1(C)CCc2ccc(-c3cnc4[nH]nc(-c5ccc(-c6ncnn6C)cc5)c4c3)cc2CC1` [Example 112, 1-Methyl-5-(4-{5-[(7S)-7-methyl-7-[(2R)-2-methylpyrrolidin-1-yl]-6,7,8,9-tetrahydro-5H-benzo[7]annulen-2-yl]-1H-pyrazolo[3,4-b]pyridin-3-yl}phenyl)-1H-1,2,4-triazole], the IC50 was < 100 nM.

As for `Cc1cccnc1-c1ccc(-c2c[nH]c3ncc(-c4ccc5c(c4)CC[C@@H](N4CCCC4)CC5)cc23)cc1` [Example 173, 3-Methyl-2-(4-{5-[(7S)-7-(pyrrolidin-1-yl)-6,7,8,9-tetrahydro-5H-benzo[7]annulen-2-yl]-1H-pyrrolo[2,3-b]pyridin-3-yl}phenyl)pyridine], the IC50 is < 100 nM.

With `COc1cccnc1-c1ccc(-c2n[nH]c3ncc(-c4ccc5c(c4)CC[C@@H](N4C6COCC4C6)CC5)cc23)cc1` [Example 166, 6-[(7S)-2-{3-[4-(3-Methoxypyridin-2-yl)phenyl]-1H-pyrazolo[3,4-b]pyridin-5-yl}-6,7,8,9-tetrahydro-5H-benzo[7]annulen-7-yl]-3-oxa-6-azabicyclo[3.1.1]heptane], the IC50 was < 100 nM.

As for `Cn1nncc1-c1ccc(-c2n[nH]c3ncc(-c4ccc5c(c4)CC[C@@H](N4C6COCC4C6)CC5)cc23)cc1` [Example 13, 6-[(7S)-2-{3-[4-(1-Methyl-1H-1,2,3-triazol-5-yl)phenyl]-1H-pyrazolo[3,4-b]pyridin-5-yl}-6,7,8,9-tetrahydro-5H-benzo[7]annulen-7-yl]-3-oxa-6-azabicyclo[3.1.1]heptane], the IC50 was < 100 nM.

For `Cc1cccnc1-c1ccc(-c2c[nH]c3ncc(-c4ccc5c(c4)CC[C@@](C)(N4CCC[C@H]4C)CC5)cc23)cc1` [Example 172, 3-Methyl-2-(4-{5-[(7S)-7-methyl-7-[(2R)-2-methylpyrrolidin-1-yl]-6,7,8,9-tetrahydro-5H-benzo[7]annulen-2-yl]-1H-pyrrolo[2,3-b]pyridin-3-yl}phenyl)pyridine], the IC50 is < 100 nM.

For `CN(C)C(=O)c1ccccc1-c1ccc(-c2n[nH]c3ncc(-c4ccc5c(c4)CC[C@@H](N4C6COCC4C6)CC5)cc23)cc1` [Example 12, N,N-Dimethyl-4′-{5-[(7S)-7-{3-oxa-6-azabicyclo[3.1.1]heptan-6-yl}-6,7,8,9-tetrahydro-5H-benzo[7]annulen-2-yl]-2H-pyrazolo[3,4-b]pyridin-3-yl}-[1,1′-biphenyl]-2-carboxamide], the IC50 was < 100 nM.

As for `c1ccc(-c2ccc(-c3n[nH]c4ncc(-c5ccc6c(c5)CC[C@@H](N5C7COCC5C7)CC6)cc34)cc2)nc1` [Example 154, 6-[(7S)-2-{3-[4-(Pyridin-2-yl)phenyl]-2H-pyrazolo[3,4-b]pyridin-5-yl}-6,7,8,9-tetrahydro-5H-benzo[7]annulen-7-yl]-3-oxa-6-azabicyclo[3.1.1]heptane], the IC50 is < 100 nM.

As for `Cc1cc(-c2n[nH]c3ncc(-c4ccc5c(c4)CC[C@@H](N4C6COCC4C6)CC5)cc23)ccc1-c1ccccn1` [Example 159, 6-[(7S)-2-{3-[3-Methyl-4-(pyridin-2-yl)phenyl]-2H-pyrazolo[3,4-b]pyridin-5-yl}-6,7,8,9-tetrahydro-5H-benzo[7]annulen-7-yl]-3-oxa-6-azabicyclo[3.1.1]heptane], the IC50 was in the range of 100 to 1000 nM.

As to `CN(C)C(=O)c1cccnc1-c1ccc(-c2c[nH]c3ncc(-c4ccc5c(c4)CC[C@@H](N4C6COCC4C6)CC5)cc23)cc1` [Example 165, N,N-Dimethyl-2-(4-{5-[(7S)-7-{3-oxa-6-azabicyclo[3.1.1]heptan-6-yl}-6,7,8,9-tetrahydro-5H-benzo[7]annulen-2-yl]-1H-pyrrolo[2,3-b]pyridin-3-yl}phenyl)pyridine-3-carboxamide], the IC50 was < 100 nM.

In the case of `CC(C)(O)c1cccnc1-c1ccc(-c2n[nH]c3ncc(-c4ccc5c(c4)CC[C@@H](N4C6COCC4C6)CC5)cc23)cc1` [Example 10, 2-[2-(4-{5-[(7S)-7-{3-Oxa-6-azabicyclo[3.1.1]heptan-6-yl}-6,7,8,9-tetrahydro-5H-benzo[7]annulen-2-yl]-1H-pyrazolo[3,4-b]pyridin-3-yl}phenyl)pyridin-3-yl]propan-2-ol], the IC50 is < 100 nM.

With `c1cncc(-c2ccc(-c3c[nH]c4ncc(-c5ccc6c(c5)CC[C@@H](N5C7COCC5C7)CC6)cc34)cc2)c1` [Example 158, 6-[(7S)-2-{3-[4-(Pyridin-3-yl)phenyl]-1H-pyrrolo[2,3-b]pyridin-5-yl}-6,7,8,9-tetrahydro-5H-benzo[7]annulen-7-yl]-3-oxa-6-azabicyclo[3.1.1]heptane], the IC50 lay within 100 to 1000 nM.

For the molecule `Cn1nccc1-c1ccc(-c2n[nH]c3ncc(-c4ccc5c(c4)CC[C@@H](N4C6COCC4C6)CC5)cc23)cc1` [Example 109, 6-[(7S)-2-{3-[4-(1-Methyl-1H-pyrazol-5-yl)phenyl]-1H-pyrazolo[3,4-b]pyridin-5-yl}-6,7,8,9-tetrahydro-5H-benzo[7]annulen-7-yl]-3-oxa-6-azabicyclo[3.1.1]heptane], the IC50 is < 100 nM.

Consider `COc1cccnc1-c1ccc(-c2c[nH]c3ncc(-c4ccc5c(c4)CC[C@@H](N4C6COCC4C6)CC5)cc23)cc1` [Example 164, 6-[(7S)-2-{3-[4-(3-Methoxypyridin-2-yl)phenyl]-1H-pyrrolo[2,3-b]pyridin-5-yl}-6,7,8,9-tetrahydro-5H-benzo[7]annulen-7-yl]-3-oxa-6-azabicyclo[3.1.1]heptane], for which the IC50 is < 100 nM.
